Like-named read-outs stand apart in the source and are kept apart here.
Assays:
[1] = biological target: recombinant human Mcl-1 (residues 171-327) / Bim interaction (Homo sapiens (Human), UniProt Q07820); test: biochemical; format: binding; settings: read-out: Mcl-1 HTRF IC50
[2] = system: human multiple myeloma cell line, OPM-2; test: Cell viability assay (OPM-2 10 FBS), CellTiter-Glo; format: cell-based
In short: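 Serially diluted test compounds are incubated 16 h with cells (3000/well) in RPMI 1640 supplemented with 10% FBS. Viability is then measured by luminescence and IC50 calculated by 4-parameter logistic fit.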

[3] = TR-FRET, Mcl-1(171-327) / biotin-Bim (51-76)
[4] = Homo sapiens, OPM-2, 16 h, read-out: OPM-2 10% FBS IC50 IP, OPM-2 cells, 10% FBS, 16 h, CellTiter-Glo
[5] = read-out: OPM-2 10% FBS IC50 IP, OPM-2 cells, 10% FBS, 16 h, CellTiter-Glo

recombinant human Mcl-1 (residues 171-327) / Bim interaction, sequence (Q07820 171-327): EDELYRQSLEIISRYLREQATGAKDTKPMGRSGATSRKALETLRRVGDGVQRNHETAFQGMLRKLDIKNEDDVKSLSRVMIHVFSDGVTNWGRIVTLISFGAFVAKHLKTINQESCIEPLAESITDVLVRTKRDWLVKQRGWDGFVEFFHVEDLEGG

| SMILES | IC50 [1, 3] | IC50 [2, 4] | IC50 [2, 5] | IC50 [1] |
| --- | --- | --- | --- | --- |
| C[C@@H]1[C@@H](C)CCC[C@@](O)(CC(=O)N2CCN(C)CC2)[C@@H]2CC[C@H]2CN2C[C@@]3(CCCc4cc(Cl)ccc43)COc3ccc(cc32)C(=O)NS1(=O)=O [Example 100167, (1S,3′R,6′R,7′R,11′S,12′R)-6-chloro-7′-hydroxy-11′,12′-dimethyl-7′-(2-(4-methyl-1-piperazinyl)-2-oxoethyl)-3,4-dihydro-2H,15′H-spiro[naphthalene-1,22′-[20]oxa[13]thia[1,14]diazatetracyclo [14.7.2.0~3,6~.0~19,24~]pentacosa[16,18,24]trien]-15′-one 13′,13′-dioxide] | 0.377 nM | 339 nM |  |  |
| C[C@@H]1[C@@H](C)CCC[C@@](O)(CS(=O)(=O)N(C)C(C)(C)C)[C@@H]2CC[C@H]2CN2C[C@@]3(CCCc4cc(Cl)ccc43)COc3ccc(cc32)C(=O)NS1(=O)=O [Example 100169, 1-((1S,3′R,6′R,7′S,11′S,12′R)-6-chloro-7′-hydroxy-11′,12′-dimethyl-13′,13′-dioxido-15′-oxo-3,4-dihydro-2H-spiro[naphthalene-1,22′-[20]oxa[13]thia[1,14]diazatetracyclo [14.7.2.0~3,6~.0~19,24~]pentacosa[16,18,24]trien]-7′-yl)-N-methyl-N-(2-methyl-2-propanyl)methanesulfonamide] | 4.83 nM |  | 2270 nM |  |
| C[C@@H]1[C@@H](C)CCC[C@@](O)(CS(=O)(=O)N(C)C(C)(C)C)[C@@H]2CC[C@H]2CN2C[C@@]3(CCCc4cc(Cl)ccc43)COc3ccc(cc32)C(=O)NS1(=O)=O [Example 100170, 1-((1S,3′R,6′R,7′S,11′S,12′R)-6-chloro-7′-hydroxy-11′,12′-dimethyl-13′,13′-dioxido-15′-oxo-3,4-dihydro-2H-spiro[naphthalene-1,22′-[20]oxa[13]thia[1,14]diazatetracyclo [14.7.2.0~3,6~.0~19,24~]pentacosa[16,18,24]trien]-7′-yl)-N-methyl-N-(2-methyl-2-propanyl)methanesulfonamide] | 12.1 nM |  | 7820 nM |  |
| C[C@@H]1[C@@H](C)C/C=C/[C@@](O)(CC=O)[C@@H]2CC[C@H]2CN2C[C@@]3(CCCc4cc(Cl)ccc43)COc3ccc(cc32)C(=O)NS1(=O)=O [Example 100171, ((1S,3′R,6′R,7′S,8′E,11′S,12′R)-6-chloro-7′-hydroxy-11′,12′-dimethyl-13′,13′-dioxido-15′-oxo-3,4-dihydro-2H-spiro[naphthalene-1,22′-[20]oxa[13]thia[1,14]diazatetracyclo [14.7.2.0~3,6~.0~19,24~]pentacosa[8,16,18,24]tetraen]-7′-yl)acetaldehyde] | 0.578 nM | 868 nM |  |  |
| C[C@@H]1[C@@H](C)CCC[C@](O)(CC(=O)Nc2ccncn2)[C@@H]2CC[C@H]2CN2C[C@@]3(CCCc4cc(Cl)ccc43)COc3ccc(cc32)C(=O)NS1(=O)=O [Example 100174, 2-((1S,3′R,6′R,7′S,11′S,12′R)-6-chloro-7′-hydroxy-11′,12′-dimethyl-13′,13′-dioxido-15′-oxo-3,4-dihydro-2H-spiro[naphthalene-1,22′-[20]oxa[13]thia[1,14]diazatetracyclo [14.7.2.0~3,6~.0~19,24~]pentacosa[16,18,24]trien]-7′-yl)-N-4-pyrimidinylacetamide] | 2.02 nM | 1910 nM |  |  |
| C[C@@H]1[C@@H](C)C/C=C/[C@](O)(CCO)[C@@H]2CC[C@H]2CN2C[C@@]3(CCCc4cc(Cl)ccc43)COc3ccc(cc32)C(=O)NS1(=O)=O [Example 100175, (1S,3′R,6′R,7′R,8′E,11′S,12′R)-6-chloro-7′-hydroxy-7′-(2-hydroxyethyl)-11′,12′-dimethyl-3,4-dihydro-2H,15′H-spiro[naphthalene-1,22′-[20]oxa[13]thia[1,14]diazatetracyclo [14.7.2.0~3,6~.0~19,24~]pentacosa[8,16,18,24]tetraen]-15′-one 13′,13′-dioxide] | 0.149 nM | 452 nM |  |  |
| CO[C@@]1(CC(=O)N(C)C)CCC[C@H](C)[C@@H](C)S(=O)(=O)NC(=O)c2ccc3c(c2)N(C[C@@H]2CC[C@H]21)C[C@@]1(CCCc2cc(Cl)ccc21)CO3 [Example 100176, 2-((1S,3′R,6′R,7′R,11′S,12′R)-6-chloro-7′-methoxy-11′,12′-dimethyl-13′,13′-dioxido-15′-oxo-3,4-dihydro-2H-spiro[naphthalene-1,22′-[20]oxa[13]thia[1,14]diazatetracyclo [14.7.2.0~3,6~.0~19,24~]pentacosa[16,18,24]trien]-7′-yl)-N,N-dimethylacetamide] | 0.48 nM | 603 nM |  |  |
| CO[C@@]1(CCCO)/C=C/C[C@H](C)[C@@H](C)S(=O)(=O)NC(=O)c2ccc3c(c2)N(C[C@@H]2CC[C@H]21)C[C@@]1(CCCc2cc(Cl)ccc21)CO3 [Example 100177, (1S,3′R,6′R,7′S,8′E,11′S,12′R)-6-chloro-7′-(3-hydroxypropyl)-7′-methoxy-11′,12′-dimethyl-3,4-dihydro-2H,15′H-spiro[naphthalene-1,22′-[20]oxa[13]thia[1,14]diazatetracyclo [14.7.2.0~3,6~.0~19,24~]pentacosa[8,16,18,24]tetraen]-15′-one 13′,13′-dioxide] | 0.258 nM | 259 nM |  |  |
| CO[C@@]1(CCCO)/C=C/C[C@H](C)[C@@H](C)S(=O)(=O)NC(=O)c2ccc3c(c2)N(C[C@@H]2CC[C@H]21)C[C@@]1(CCCc2cc(Cl)ccc21)CO3 [Example 100178, (1S,3′R,6′R,7′S,8′E,11′S,12′R)-6-chloro-7′-(3-hydroxypropyl)-7′-methoxy-11′,12′-dimethyl-3,4-dihydro-2H,15′H-spiro[naphthalene-1,22′-[20]oxa[13]thia[1,14]diazatetracyclo [14.7.2.0~3,6~.0~19,24~]pentacosa[8,16,18,24]tetraen]-15′-one 13′,13′-dioxide] | 0.432 nM |  | 237 nM |  |
| C[C@@H]1[C@@H](C)C/C=C/[C@](O)(c2ccccn2)[C@@H]2CC[C@H]2CN2C[C@@]3(CCCc4cc(Cl)ccc43)COc3ccc(cc32)C(=O)NS1(=O)=O [Example 100180, (1S,3′R,6′R,7′R,8′E,11′S,12′R)-6-chloro-7′-hydroxy-11′,12′-dimethyl-7′-(2-pyridinyl)-3,4-dihydro-2H,15′H-spiro[naphthalene-1,22′-[20]oxa[13]thia[1,14]diazatetracyclo [14.7.2.0~3,6~.0~19,24~]pentacosa[8,16,18,24]tetraen]-15′-one 13′,13′-dioxide] | 4.92 nM | 4420 nM |  |  |
| C[C@@H]1[C@@H](C)C/C=C/[C@@](C)(O)[C@@H]2CC[C@H]2CN2C[C@@]3(CCCc4cc(Cl)ccc43)COc3ccc(cc32)C(=O)NS1(=O)=O [Example 100182, (1S,3′R,6′R,7′R,8′E,11′S,12′R)-6-chloro-7′-hydroxy-7′,11′,12′-trimethyl-3,4-dihydro-2H,15′H-spiro[naphthalene-1,22′-[20]oxa[13]thia[1,14]diazatetracyclo [14.7.2.0~3,6~.0~19,24~]pentacosa[8,16,18,24]tetraen]-15′-one 13′,13′-dioxide] |  | 827 nM |  | 0.863 nM |
| C[C@@H]1[C@@H](C)CCC[C@@](O)(c2cccnc2)[C@@H]2CC[C@H]2CN2C[C@@]3(CCCc4cc(Cl)ccc43)COc3ccc(cc32)C(=O)NS1(=O)=O [Example 100185, (1S,3′R,6′R,7′S,11′S,12′R)-6-chloro-7′-hydroxy-11′,12′-dimethyl-7′-(3-pyridinyl)-3,4-dihydro-2H,15′H-spiro[naphthalene-1,22′-[20]oxa[13]thia[1,14]diazatetracyclo [14.7.2.0~3,6~.0~19,24~]pentacosa[16,18,24]trien]-15′-one 13′,13′-dioxide] |  | 5130 nM |  | 8.88 nM |
| C[C@@H]1[C@@H](C)C/C=C/[C@](O)(c2nccn2C)[C@@H]2CC[C@H]2CN2C[C@@]3(CCCc4cc(Cl)ccc43)COc3ccc(cc32)C(=O)NS1(=O)=O [Example 100186, (1S,3′R,6′R,7′R,8′E,11′S,12′R)-6-chloro-7′-hydroxy-11′,12′-dimethyl-7′-(1-methyl-1H-imidazol-2-yl)-3,4-dihydro-2H,15′H-spiro[naphthalene-1,22′-[20]oxa[13]thia[1,14]diazatetracyclo [14.7.2.0~3,6~.0~19,24~]pentacosa[8,16,18,24]tetraen]-15′-one 13′,13′-dioxide] | 0.377 nM | 312 nM |  |  |
| C[C@@H]1[C@@H](C)C/C=C/[C@](O)(Cc2ccnc(C#N)c2)[C@@H]2CC[C@H]2CN2C[C@@]3(CCCc4cc(Cl)ccc43)COc3ccc(cc32)C(=O)NS1(=O)=O [Example 100187, 4-(((1S,3′R,6′R,7′R,8′E,11′S,12′R)-6-chloro-7′-hydroxy-11′,12′-dimethyl-13′,13′-dioxido-15′-oxo-3,4-dihydro-2H-spiro[naphthalene-1,22′-[20]oxa[13]thia[1,14]diazatetracyclo [14.7.2.0~3,6~.0~19,24~]pentacosa[8,16,18,24]tetraen]-7′-yl)methyl)-2-pyridinecarbonitrile] | 2.76 nM |  | 3110 nM |  |
| C[C@@H]1[C@@H](C)C/C=C/[C@](O)(Cc2ccnc(C#N)c2)[C@@H]2CC[C@H]2CN2C[C@@]3(CCCc4cc(Cl)ccc43)COc3ccc(cc32)C(=O)NS1(=O)=O [Example 100188, 4-(((1S,3′R,6′R,7′R,8′E,11′S,12′R)-6-chloro-7′-hydroxy-11′,12′-dimethyl-13′,13′-dioxido-15′-oxo-3,4-dihydro-2H-spiro[naphthalene-1,22′-[20]oxa[13]thia[1,14]diazatetracyclo [14.7.2.0~3,6~.0~19,24~]pentacosa[8,16,18,24]tetraen]-7′-yl)methyl)-2-pyridinecarbonitrile] | 0.877 nM |  | 735 nM |  |

Reference: patent publication US10821115B2, “Compounds that inhibit Mcl-1 protein” (priority 2017, dated 2020)
